Reference: patent publication US20120128630A1, “1-(6 MEMBERS AZO-HETEROCYCLIC)-PYRROLIN-2-ONE COMPOUNDS AS INHIBITORS OF HEPATITIS C NS5B POLYMERASE, THE PHARAMACEUTICAL COMPOSITION THEREOF AND THEIR THERAPEUTIC USE” (priority 2009, published 2012)
Where “and” joins values, the source holds several entries; their conditions need not be identical. Equal entries are not always repeated.

Assays:
HCV replicon Luc Neo ET = test: Luc Neo ET Replicon assay; format: cell-based, Hepatitis C virus; conditions: Table 3, titled RdRp enzyme assay results, EC50_Replicon LucneoET, 72 hours with compound, luciferase
Method: Human Hepatoma Huh-7 cell line was maintained in DMEM/HAMF-12 supplemented with 10% SVF, 4 mM glutamine, […] Na pyruvate, 1% penistreptomycine. HCV replicon containing Huh-7 cell lines Huh-9.13 and Luc Neo ET (Reblikon) were maintained in DMEM supplemented with 10% SVF, 2 mM glutamine, and 1×NEAA, 100 U/ml penicillin, and 100 μg/ml streptomycine. Replicon cells were maintained in medium supplemented with 1 mg/ml G418 for replicon Huh-9.13 and 0.5 mg/ml for Luc Neo et replicon unless indicated otherwise. Huh-7 and HCV replicon cell lines were maintained at 37° C. and 5% CO2 in a humidified atmosphere. Cells were dissociated at sub confluence with trypsin EDTA 1×.
Replicon Luc Neo ET is a bicistronic expression constructs (Lohmann et al, 1999, Science 285, 110-113). In brief, the structural genes of the HCV genome were replaced by heterologous sequences; the gene encoding the neomycin phosphotransferase (NPT) and the internal ribosome entry site (IRES) of the encephalomyocarditis virus (EMCV). The bicistronic construct is therefore composed of the following elements: HCV-IRES nucleotides 1-389, the NPT gene, the EMCV-IRES directing translation of downstream HCV sequences from NS2 or NS3 up to the authentic 3′ end of the genome. HCV Polyprotein harbours the cell culture adaptive mutations E1202G, T1280I, K1846T. G418-resistance is only possible with cells containing high amounts of replicon.
Cells were dissociated the day before addition of compounds and seeded in 96 well-plates at a final concentration of 77 777.77 cells.ml^−1.well^−2 in 90 μl final volume of culture medium per well and were maintained at 37° C. and 5% CO2 in a humidified atmosphere for 24 hours. 10 μl of compounds to be tested were added 24 hours after seeding. Final concentration of DMSO was 1%. Cells were incubated in the presence of compounds for 72 hours after which expression of firefly luciferase reporter gene was quantified. Briefly, culture medium was removed and cells were lysed by addition of 100 μl of lysis buffer containing 125 mM Tris Phosphate ph 7.8, 10 mM EDTA, 5 mM DTT, 50% glycerol and 5% Triton. Plates were vortexed 10 min at 1300 rpm. Cell lysat was transferred in OpaqueWhite Assay 96 well Flat Bottom plates. 100 μl of luciferin solution 1× were added to each well. Luciferin solution contained 40 mM Tris Phosphate ph 7.8, 0.2 mM EDTA, 67 mM DTT, 2.14 mM MgCl2, 5.4 mM MgSO4, 4.7×10^−4 M luciferin, 5.3×10^−4 M ATP and 2.7×10^−4 M Acetyl co enzyme A. Luminescence was immediately measured with Berthold Microlumat Plus LB 96V luminometer with an integration of 0.5 sec Inhibition was calculated using the formula:
% inhibition=1−[(RLUsample−RLUbackground)/(RLUsignal−RLUbackground)]

HCV NS5B genotype 1b = target: T1, HCV NS5B genotype 1b (Hepatitis C virus genotype 1b, UniProt Q9WMX2); test: 3D-SCREEN assay (NS5B 3D-Screen platform, luciferase reporter gene); format: cell-based; conditions: EC50_3DS_NS5B
T1 construct: The protein was expressed with a 21 amino acid C-terminal deletion to remove transmembrane domain; expressed in transfected cells; host or cells: Huh-7
Procedure, shortened: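 Huh-7 cells transiently co-transfected with NS5BΔ21/Gal4-DBD, 3D-Sensor peptide I4/VP16 and firefly luciferase reporter. Compounds added 2 h after seeding, 1% DMSO final, 24 h incubation. Luciferase luminescence read; % inhibition relative to no-compound signal.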

[1] = Table 1, 3D-SCREEN assay results, Huh-7 cells, 24 hours with compound, firefly luciferase reporter
[2] = Table 2, titled Replicon assay results

Row | Structure (SMILES) | EC50 (HCV replicon Luc Neo ET; Hepatitis C virus, 72 h) | melting point | EC50 (HCV NS5B genotype 1b; [1]) | EC50 (HCV replicon Luc Neo ET) | EC50 (HCV NS5B genotype 1b; [2])
1 | Cc1ccc(N2C(=O)C(O)=C(C(=O)c3ccc(C(C)C)cc3)C2c2ccc(C(C)C)cc2)nn1 (stereo not drawn) [Example 20, 3-hydroxy-4-(4-isopropyl-benzoyl)-5-(4-isopropyl-phenyl)-1-(6-methyl-pyridazin-3-yl)-1,5-dihydro-pyrrol-2-one] | 100 nM | 271 °C | 400 nM | – | –
2 | Cc1ccc(C(=O)C2=C(O)C(=O)N(c3ccc(C)nn3)C2c2ccc(OC(F)(F)F)cc2)cc1 (stereo not drawn) [Example 22, 3-hydroxy-4-(4-methyl-benzoyl)-1-(6-methyl-pyridazin-3-yl)-5-(4-trifluoromethoxy-phenyl)-1,5-dihydro-pyrrol-2-one] | 500 nM | 269 °C | 600 nM | – | –
3 | Cc1ccc(N2C(=O)C(O)=C(C(=O)c3ccc(OC(F)(F)F)cc3)C2c2ccc(C(C)C)cc2)nn1 (stereo not drawn) [Example 25, 3-hydroxy-5-(4-isopropyl-phenyl)-1-(6-methyl-pyridazin-3-yl)-4-(4-trifluoromethoxy-benzoyl)-1,5-dihydro-pyrrol-2-one] | 200 nM | 269 °C | 500 nM | – | –
4 | Cc1ccc(N2C(=O)C(O)=C(C(=O)c3ccc(C(C)C)cc3)C2c2ccc(C(C)C)cc2)cn1 (stereo not drawn) [Example 48, 3-hydroxy-4-(4-isopropyl-benzoyl)-5-(4-isopropyl-phenyl)-1-(6-methyl-pyridin-3-yl)-1,5-dihydro-pyrrol-2-one] | – | 252 to 254 °C | 700 nM | 1000 nM | –
5 | CC(=O)OC1=C(C(=O)c2ccc(C(C)C)cc2)C(c2ccc(C(C)C)cc2)N(c2ccc(C)nn2)C1=O (stereo not drawn) [Example 56, Acetic acid 4-(4-isopropyl-benzoyl)-5-(4-isopropyl-phenyl)-1-(6-methyl-pyridazin-3-yl)-2-oxo-2,5-hydro-1H-pyrrol-3-yl ester] | 600 nM | 215 °C | 500 nM | – | –
6 | Cc1ccc(N2C(=O)C(O)=C(C(=O)c3ccc(C(C)C)cc3)C2c2ccc(OC(F)(F)F)cc2)nn1 (stereo not drawn) [Example 61, 3-hydroxy-4-(4-isopropyl-benzoyl)-1-(6-methyl-pyridazin-3-yl)-5-(4-trifluoromethoxy-phenyl)-1,5-dihydro-pyrrol-2-one] | 100 nM | 258 to 260 °C and 262 to 265 °C | 70 nM | – | –
7 | COc1ccc(C2C(C(=O)c3ccc(C(C)C)cc3)=C(O)C(=O)N2c2ccc(C)nn2)cc1 (stereo not drawn) [Example 62, 3-hydroxy-4-(4-isopropyl-benzoyl)-5-(4-methoxy-phenyl)-1-(6-methyl-pyridazin-3-yl)-1,5-dihydro-pyrrol-2-one] | 900 nM | 263 to 267 °C | 800 nM | – | –
8 | Cc1ccc(N2C(=O)C([O-])=C(C(=O)c3ccc(C(C)C)cc3)C2c2ccc(C(C)C)cc2)cn1.[Na+] (stereo not drawn) [Example 67, Sodium; 4-(4-isopropyl-benzoyl)-5-(4-isopropyl-phenyl)-1-(6-methyl-pyridin-3-yl)-2-oxo-2,5-dihydro-1H-pyrrol-3-olate] | – | 215 °C | 3000 nM | < 10000 nM | –
9 | CC(=O)OC1=C(C(=O)c2ccc(C)cc2)C(c2ccc(OC(F)(F)F)cc2)N(c2ccc(C)nn2)C1=O (stereo not drawn) [Example 76, Acetic acid 4-(4-methyl-benzoyl)-1-(6-methyl-pyridazin-3-yl)-2-oxo-5-(4-trifluoromethoxy-phenyl)-2,5-dihydro-1H-pyrrol-3-yl ester] | < 10000 nM | 165 to 166.5 °C | 600 nM | – | –
10 | Cc1ccc(N2C(=O)C(O)=C(C(=O)c3ccc(C(C)C)cc3)C2c2ccc(OC(F)(F)F)cc2)cn1 (stereo not drawn) [Example 77, 3-hydroxy-4-(4-isopropyl-benzoyl)-1-(6-methyl-pyridin-3-yl)-5-(4-trifluoromethoxy-phenyl)-1,5-dihydro-pyrrol-2-one] | < 10000 nM | 214 to 218 °C | – | – | < 1000 nM
11 | Cc1ccc(N2C(=O)C(O)=C(C(=O)c3ccc(-c4ccccc4)cc3)C2c2ccc(OC(F)(F)F)cc2)nn1 (stereo not drawn) [Example 79, 4-(biphenyl-4-carbonyl)-3-hydroxy-1-(6-methyl-pyridazin-3-yl)-5-(4-trifluoromethoxy-phenyl)-1,5-dihydro-pyrrol-2-one] | < 10000 nM | 226 to 232 °C | 500 nM | – | –
12 | Cc1ccc(N2C(=O)C(O)=C(C(=O)c3ccc(N4CCOCC4)cc3)C2c2ccc(OC(F)(F)F)cc2)nn1 (stereo not drawn) [Example 80, 3-hydroxy-1-(6-methyl-pyridazin-3-yl)-4-(4-morpholin-4-yl-benzoyl)-5-(4-trifluoromethoxy-phenyl)-1,5-dihydro-pyrrol-2-one] | < 10000 nM | 234 °C | 2000 nM | – | –
13 | Cc1ccc(N2C(=O)C(O)=C(C(=O)c3ccc(C(C)C)cc3)C2c2ccc(OC(F)F)cc2)nn1 (stereo not drawn) [Example 88, 5-(4-difluoromethoxy-phenyl)-3-hydroxy-4-(4-isopropyl-benzoyl)-1-(6-methyl-pyridazin-3-yl)-1,5-dihydro-pyrrol-2-one] | < 1000 nM | 263 to 265 °C | – | – | < 1000 nM
14 | Cc1ccc(N2C(=O)C(O)=C(C(=O)c3ccc(C(C)C)cc3)C2c2ccc(OC(C)C)cc2)nn1 (stereo not drawn) [Example 89, 3-hydroxy-5-(4-isopropoxy-phenyl)-4-(4-isopropyl-benzoyl)-1-(6-methyl-pyridazin-3-yl)-1,5-dihydro-pyrrol-2-one] | < 10000 nM | 280 to 281 °C | – | – | < 10000 nM
15 | Cc1ccc(N2C(=O)C(O)=C(C(=O)c3ccc(C(C)C)cc3)C2c2ccc(OC(C)(C)C)cc2)nn1 (stereo not drawn) [Example 90, 5-(4-tert-butoxyphenyl)-3-hydroxy-4-(4-isopropyl-benzoyl)-1-(6-methyl-pyridazin-3-yl)-1,5-dihydro-pyrrol-2-one] | < 10000 nM | 276 to 277 °C | – | – | < 10000 nM
16 | CCc1ccc(C(=O)C2=C(O)C(=O)N(c3ccc(C)nn3)C2c2ccc(OC(F)(F)F)cc2)cc1 (stereo not drawn) [Example 102, 4-(4-ethyl-benzoyl)-3-hydroxy-1-(6-methyl-pyridazin-3-yl)-5-(4-trifluoromethoxy-phenyl)-1,5-dihydro-pyrrol-2-one] | < 1000 nM | 263 to 267 °C | – | – | < 1000 nM
17 | CCOc1ccc(C2C(C(=O)c3ccc(C(C)C)cc3)=C(O)C(=O)N2c2ccc(C)nn2)cc1 (stereo not drawn) [Example 104, 5-(4-ethoxy-phenyl)-3-hydroxy-4-(4-isopropyl-benzoyl)-1-(6-methyl-pyridazin-3-yl)-1,5-dihydro-pyrrol-2-one] | < 1000 nM | 279 °C | – | – | < 1000 nM
18 | CCc1ccc(C2C(C(=O)c3ccc(C(C)C)cc3)=C(O)C(=O)N2c2ccc(C)nn2)cc1 (stereo not drawn) [Example 105, 5-(4-ethyl-phenyl)-3-hydroxy-4-(4-isopropyl-benzoyl)-1-(6-methyl-pyridazin-3-yl)-1,5-dihydro-pyrrol-2-one] | < 1000 nM | 282 to 284 °C | – | – | < 1000 nM
19 | CC(C)c1ccc(C(=O)C2=C(O)C(=O)N(c3ccc(Sc4ccc([N+](=O)[O-])cc4)nn3)C2c2ccc(OC(F)(F)F)cc2)cc1 (stereo not drawn) [Example 119, 3-hydroxy-4-(4-isopropyl-benzoyl)-1-[6-(4-nitro-phenylsulfanyl)-pyridazin-3-yl]-5-(4-trifluoromethoxy-phenyl)-1,5-dihydro-pyrrol-2-one] | < 10000 nM | 194 to 209 °C | – | – | < 1000 nM
